The assay addresses T1, B1R receptor of the rat (CHO K1 cells stably transfected with the B1R gene of the rat) (Rattus norvegicus, UniProt P97583).
T1 construct: expressed in transfected cells; host or cells: CHO K1 cells (Chinese hamster ovary), stably transfected
T1 sequence (P97583 1-337): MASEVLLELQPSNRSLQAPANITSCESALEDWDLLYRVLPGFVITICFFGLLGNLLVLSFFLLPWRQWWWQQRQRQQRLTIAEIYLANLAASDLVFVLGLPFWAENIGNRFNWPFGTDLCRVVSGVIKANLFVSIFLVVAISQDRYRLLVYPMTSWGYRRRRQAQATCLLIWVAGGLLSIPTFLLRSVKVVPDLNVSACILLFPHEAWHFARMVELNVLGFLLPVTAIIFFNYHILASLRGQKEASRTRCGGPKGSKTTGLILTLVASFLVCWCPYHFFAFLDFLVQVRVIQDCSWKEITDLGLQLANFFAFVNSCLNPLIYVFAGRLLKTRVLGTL
The experiment in a line: Functional study on the bradykinin receptor 1 (B1R), Ca2+ fluorescence (Fluo-4) FLIPR/Novostar assay, rB1R cells. The note with it: CHO-K1, 10 μM, library compounds CC_H, read-out: % Inhibition (r-B1R) at 10 μM. The assay is classed as cell-based. A digest of the protocol:
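Stably transfected CHO K1 cells carrying human or rat B1R were Fluo-4 loaded and Ca2+ fluorescence read by FLIPR or Novostar. Compounds were added first at 10 μM for % activation, then the EC80 agonist was applied after 6-20 min (human: Lys-Des-Arg9-bradykinin; rat: Des-Arg9-bradykinin). % inhibition is relative to maximum achievable inhibition, and IC50 comes from concentration series.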
One may read the inhibition as the drop in the measured response relative to a control, in per cent. Turning to `CN(C(=O)c1ccc2c(c1)C(NC(=O)c1cccnc1C(F)(F)F)CC2)C1CCN(c2ccnc(N3CCCC3)n2)CC1` (stereo not drawn) [CC_H-603, N-[6-[Methyl-[1-(2-pyrrolidin-1-yl-pyrimidin-4-yl)-piperidin-4-yl]-carbamoyl]-2,3-dihydro-1H-inden-1-yl]-2-(trifluoromethyl)-pyridine-3-carboxylic acid amide], the inhibition at 10 µM is 102%.
In the case of `Cc1cc(N2CCC(N(C)C(=O)c3ccc4c(c3)C(NC(=O)c3cccnc3C(F)(F)F)CC4)CC2)nc(N(C)C)n1` (stereo not drawn) [CC_H-604, N-[6-[[1-(2-Dimethylamino-6-methyl-pyrimidin-4-yl)-piperidin-4-yl]-methyl-carbamoyl]-2,3-dihydro-1H-inden-1-yl]-2-(trifluoromethyl)-pyridine-3-carboxylic acid amide], the inhibition at 10 µM turned out to be 102%.
For `CN(C(=O)c1ccc2c(c1)C(NC(=O)c1cccnc1C(F)(F)F)CC2)C1CCN(c2ccnc(C(C)(C)C)n2)CC1` (stereo not drawn) [CC_H-606, N-[6-[[1-(2-tert-Butyl-pyrimidin-4-yl)-piperidin-4-yl]-methyl-carbamoyl]-2,3-dihydro-1H-inden-1-yl]-2-(trifluoromethyl)-pyridine-3-carboxylic acid amide], the inhibition at 10 µM amounted to 99%.
The figure for `Cc1ncc2n1C(=O)N(C1CCC(N(C)C(=O)c3ccc4c(c3)C(NC(=O)c3cccnc3C(F)(F)F)CC4)CC1)C2` (stereo not drawn) [CC_H-607, N-[6-[Methyl-[4-(5-methyl-3-oxo-1,2-dihydro-imidazo[5,1-e]imidazol-2-yl)-cyclohexyl]-carbamoyl]-2,3-dihydro-1H-inden-1-yl]-2-(trifluoromethyl)-pyridine-3-carboxylic acid amide] is 96%.
`CN(C)c1nccc(N2CCC(N(C)C(=O)c3ccc4c(c3)C(NC(=O)c3cccnc3C(F)(F)F)CC4)CC2)n1` (stereo not drawn) [CC_H-608, N-[6-[[1-(2-Dimethylamino-pyrimidin-4-yl)-piperidin-4-yl]-methyl-carbamoyl]-2,3-dihydro-1H-inden-1-yl]-2-(trifluoromethyl)-pyridine-3-carboxylic acid amide]: the inhibition at 10 µM was found to be 102%.
Under `CN(C(=O)c1ccc2c(c1)C(NC(=O)c1ccccc1Cl)CC2)C1CCN(c2ccnc(S(C)(=O)=O)n2)CC1` (stereo not drawn) [CC_H-609, 3-[(2-Chloro-benzoyl)amino]-N-methyl-N-[1-(2-methylsulfonyl-pyrimidin-4-yl)-piperidin-4-yl]-2,3-dihydro-1H-indene-5-carboxylic acid amide] stands 102%; under `CN(C(=O)c1ccc2c(c1)C(NC(=O)c1cccnc1C(F)(F)F)CC2)C1CCN(c2ccnc(C3CC3)n2)CC1` (stereo not drawn) [CC_H-610, N-[6-[[1-(2-Cyclopropyl-pyrimidin-4-yl)-piperidin-4-yl]-methyl-carbamoyl]-2,3-dihydro-1H-inden-1-yl]-2-(trifluoromethyl)-pyridine-3-carboxylic acid amide], 101%.
The figure for `CN(C(=O)c1ccc2c(c1)C(NC(=O)c1ccccc1Cl)CC2)C1CCN(c2ccnc(N3CCCC3)n2)CC1` (stereo not drawn) [CC_H-612, 3-[(2-Chloro-benzoyl)amino]-N-methyl-N-[1-(2-pyrrolidin-1-yl-pyrimidin-4-yl)-piperidin-4-yl]-2,3-dihydro-1H-indene-5-carboxylic acid amide] is 101%; for `CN(C(=O)c1ccc2c(c1)C(NC(=O)CCC1CCCC1)CC2)C1CCN(c2ccnc(S(C)(=O)=O)n2)CC1` (stereo not drawn) [CC_H-613, 3-(3-Cyclopentyl-propanoylamino)-N-methyl-N-[1-(2-methylsulfonyl-pyrimidin-4-yl)-piperidin-4-yl]-2,3-dihydro-1H-indene-5-carboxylic acid amide] it is 90%.
The figure for `Cc1cc(N2CCC(N(C)C(=O)c3ccc4c(c3)C(NC(=O)c3ccccc3Cl)CC4)CC2)nc(N(C)C)n1` (stereo not drawn) [CC_H-614, 3-[(2-Chloro-benzoyl)amino]-N-[1-(2-dimethylamino-6-methyl-pyrimidin-4-yl)-piperidin-4-yl]-N-methyl-2,3-dihydro-1H-indene-5-carboxylic acid amide] is 101%.
For `CN(C)C(=O)c1cc(N2CCC(N(C)C(=O)c3ccc4c(c3)C(NC(=O)CCC3CCCC3)CC4)CC2)ccn1` (stereo not drawn) [CC_H-615, 4-[4-[[3-(3-Cyclopentyl-propanoylamino)-2,3-dihydro-1H-inden-5-carbonyl]-methyl-amino]-piperidin-1-yl]-N,N-dimethyl-pyridine-2-carboxylic acid amide], the inhibition at 10 µM amounted to 65%.
The figure for `CN(C(=O)c1ccc2c(c1)C(NC(=O)c1ccccc1Cl)CC2)C1CCN(c2ccnc(C(C)(C)C)n2)CC1` (stereo not drawn) [CC_H-616, N-[1-(2-tert-Butyl-pyrimidin-4-yl)-piperidin-4-yl]-3-[(2-chloro-benzoyl)amino]-N-methyl-2,3-dihydro-1H-indene-5-carboxylic acid amide] is 101%.
On to `Cc1ncc2n1C(=O)N(C1CCC(N(C)C(=O)c3ccc4c(c3)C(NC(=O)c3ccccc3Cl)CC4)CC1)C2` (stereo not drawn) [CC_H-618, 3-[(2-Chloro-benzoyl)amino]-N-methyl-N-[4-(5-methyl-3-oxo-1,2-dihydro-imidazo[5,1-e]imidazol-2-yl)-cyclohexyl]-2,3-dihydro-1H-indene-5-carboxylic acid amide], for which the inhibition at 10 µM came to 84%.
The figure for `CN(C(=O)c1ccc2c(c1)C(NC(=O)CCC1CCCC1)CC2)C1CCN(c2ccnc(N3CCCC3)n2)CC1` (stereo not drawn) [CC_H-620, 3-(3-Cyclopentyl-propanoylamino)-N-methyl-N-[1-(2-pyrrolidin-1-yl-pyrimidin-4-yl)-piperidin-4-yl]-2,3-dihydro-1H-indene-5-carboxylic acid amide] is 102%; for `CN(C(=O)c1ccc2c(c1)C(NC(=O)c1cccnc1C(F)(F)F)CC2)C1CCN(c2ncncc2F)CC1` (stereo not drawn) [CC_H-621, N-[6-[[1-(5-Fluoro-pyrimidin-4-yl)-piperidin-4-yl]-methyl-carbamoyl]-2,3-dihydro-1H-inden-1-yl]-2-(trifluoromethyl)-pyridine-3-carboxylic acid amide] it is 98%; for `Cc1cc(N2CCC(N(C)C(=O)c3ccc4c(c3)C(NC(=O)CCC3CCCC3)CC4)CC2)nc(N(C)C)n1` (stereo not drawn) [CC_H-622, 3-(3-Cyclopentyl-propanoylamino)-N-[1-(2-dimethylamino-6-methyl-pyrimidin-4-yl)-piperidin-4-yl]-N-methyl-2,3-dihydro-1H-indene-5-carboxylic acid amide] it is 100%.
On to `CN(C)c1nccc(N2CCC(N(C)C(=O)c3ccc4c(c3)C(NC(=O)c3ccccc3Cl)CC4)CC2)n1` (stereo not drawn) [CC_H-623, 3-[(2-Chloro-benzoyl)amino]-N-[1-(2-dimethylamino-pyrimidin-4-yl)-piperidin-4-yl]-N-methyl-2,3-dihydro-1H-indene-5-carboxylic acid amide], for which the inhibition at 10 µM was 101%.
The figure for `CN(C(=O)c1ccc2c(c1)C(NC(=O)CCC1CCCC1)CC2)C1CCN(c2ccnc(C(C)(C)C)n2)CC1` (stereo not drawn) [CC_H-624, N-[1-(2-tert-Butyl-pyrimidin-4-yl)-piperidin-4-yl]-3-(3-cyclopentyl-propanoylamino)-N-methyl-2,3-dihydro-1H-indene-5-carboxylic acid amide] is 96%; for `CN(C(=O)c1ccc2c(c1)C(NC(=O)c1ccccc1Cl)CC2)C1CCN(c2ccnc(C3CC3)n2)CC1` (stereo not drawn) [CC_H-627, 3-[(2-Chloro-benzoyl)amino]-N-[1-(2-cyclopropyl-pyrimidin-4-yl)-piperidin-4-yl]-N-methyl-2,3-dihydro-1H-indene-5-carboxylic acid amide] it is 100%.
The figure for `CN(C(=O)c1ccc2c(c1)C(NC(=O)c1cccnc1C(F)(F)F)CC2)C1CCN(c2ccnnc2)CC1` (stereo not drawn) [CC_H-628, N-[6-[Methyl-(1-pyridazin-4-yl-piperidin-4-yl)-carbamoyl]-2,3-dihydro-1H-inden-1-yl]-2-(trifluoromethyl)-pyridine-3-carboxylic acid amide] is 99%; for `CN(C)c1nccc(N2CCC(N(C)C(=O)c3ccc4c(c3)C(NC(=O)CCC3CCCC3)CC4)CC2)n1` (stereo not drawn) [CC_H-629, 3-(3-Cyclopentyl-propanoylamino)-N-[1-(2-dimethylamino-pyrimidin-4-yl)-piperidin-4-yl]-N-methyl-2,3-dihydro-1H-indene-5-carboxylic acid amide] it is 101%; for `CN(C(=O)c1ccc2c(c1)C(NC(=O)CCC1CCCC1)CC2)C1CCN(c2ccnc(C3CC3)n2)CC1` (stereo not drawn) [CC_H-630, 3-(3-Cyclopentyl-propanoylamino)-N-[1-(2-cyclopropyl-pyrimidin-4-yl)-piperidin-4-yl]-N-methyl-2,3-dihydro-1H-indene-5-carboxylic acid amide] it is 95%.
Consider `CN(C(=O)c1ccc2c(c1)C(NC(=O)c1ccccc1Cl)CC2)C1CCN(c2ncncc2F)CC1` (stereo not drawn) [CC_H-631, 3-[(2-Chloro-benzoyl)amino]-N-[1-(5-fluoro-pyrimidin-4-yl)-piperidin-4-yl]-N-methyl-2,3-dihydro-1H-indene-5-carboxylic acid amide], for which the inhibition at 10 µM stood at 94%.
Under `CN(C(=O)c1ccc2c(c1)C(NC(=O)CCC1CCCC1)CC2)C1CCN(c2ncncc2F)CC1` (stereo not drawn) [CC_H-632, 3-(3-Cyclopentyl-propanoylamino)-N-[1-(5-fluoro-pyrimidin-4-yl)-piperidin-4-yl]-N-methyl-2,3-dihydro-1H-indene-5-carboxylic acid amide] stands 95%.

The values are drawn from patent US8680159B2, “Bradykinin 1 receptor modulating compounds” (Gruenenthal GmbH, priority 2010, dated 2014).
